{"source": "patent US20080317700A1", "about": "(priority 2006, published 2008)", "key": {"[1]": {"assay": "Solubility (qualitative)", "format": "physicochemical"}, "[2]": {"tested_on": "cyanobacteria Synechococcus 7002", "assay": "Liquid culture growth inhibition (optical density), salt water cyanobacteria", "format": "cell-based", "details": "Synechococcus 7002, residual salt control; untreated control 0.72", "description": "Strains of green algae, cyanobacteria and E. Coli were used as test organisms. The green algae CD 1 Red and cyanobacteria Synechocystos 6803 were obtained from the collection of Prof. George Bullerjahn. Salt water strain of cyanobacteria Synechococcus 7002 was obtained from the collection of Prof. Michael McKay. E Coli DH 5α was obtained from Invitrogen Inc.\nGreen algae and cyanobacteria were propagated photoautotrophically in 250 mL Erlenmeyer flasks containing 100 mL of liquid BG-11 culture medium (see Supporting Information). The cultures were kept on a rotating shaker (100 rpm) at 25° C. for 4 days and continuously illuminated with cool-white fluorescent light with a constant light intensity of 5000 lux. The grown culture medium was sterilized in an autoclave at 121° C. and 1.05 kg cm^−2 pressure for 20 min. For the cell experiments, 20 mL aliquots of the BG-11 medium containing the green algal ([cells]initial=5.9×10^7 mL^−1) or cyanobacteria cells ([cells]initial=1.7×10^9 mL^−1) were placed in sterile 50 mL Erlenmeyer flasks. CD 1 Red, Synechocystos 6803 and Synechococcus 7002 were then treated with an aliquot of a stock herbicide solution to bring the final herbicide concentration to 1 mM and incubated for 7 days on a rotator shaker (100 rpm) at 25° C. and continuous light intensity of 5000 lux. Cell counts were correlated with the absorbance and measured as a function of time using a Spectronic 20 Genesis spectrophotometer. As previously reported by Ma et al., 5 the optimal wavelength for monitoring culture growth is 680 nm. Experiments for each herbicide were repeated three times. Control and treated cultures were grown under the same conditions of temperature, photoperiod, and agitation. In each experiment, the inhibition of cell growth in treated cultures was monitored spectrophotometrically and compared to the growth in control samples."}, "[3]": {"tested_on": "green algae CD 1 Red", "assay": "organism not typed", "format": "cell-based", "details": "120 h; CD1 Red, herbicide concentration 300 mM, 5 days; read-out: Average radii of the inhibition zones", "description": "After phototrophical propagation during the 5 days under cool fluorescence light (intensity 5000 lux), the average radii of inhibition zones were measured. Water soaked filter paper circles were used as controls. Experiments for each herbicide concentration were repeated 3 times."}}}
{"smiles": "C=C(C)C(=O)N(CC(=O)O)CP(=O)(O)O", "note": "[MA, N-Methacryloyl-N-(phosphonomethyl)glycine]", "values": [{"measurement": "Solubility in organic solvents", "setting": "[1]", "value": "poorly soluble in most organic solvents"}, {"measurement": "Solubility in water", "setting": "[1]", "value": "soluble in water"}]}
{"smiles": "[Cl-].[Na+]", "note": "[NaCl, sodium chloride]", "values": [{"measurement": "Optical Density at 680 nm after 7 days of media growth, NaCl control experiment", "setting": "[2]", "value": "(0.75 NaCl)"}]}
{"smiles": "C=CC(N)=O", "note": "[acrylamide]", "values": [{"measurement": "zone of inhibition at 300000 µM", "setting": "[3]", "value": 7.5, "unit": "mm"}]}
